Patent publication US20260083704A1, “LXR MODULATORS WITH BICYCLIC CORE MOIETY FOR TREATING DYSLIPIDEMIAS” (OrsoBio, Inc., priority 2022, published 2026)

Columns and labels:
[1] = target: T1, GST-LXRβ ligand-binding domain (Homo sapiens, UniProt P55055); experiment: TR-FRETβ activity assay (NCoA3 coactivator peptide recruitment); format: biochemical; conditions: 1 μM 24(S)-25-epoxycholesterol prestimulation
T1 construct: amino acids 156-461; NP009052; made in house; host or cells: E. coli
T1 sequence (P55055 156-460 limits assumed): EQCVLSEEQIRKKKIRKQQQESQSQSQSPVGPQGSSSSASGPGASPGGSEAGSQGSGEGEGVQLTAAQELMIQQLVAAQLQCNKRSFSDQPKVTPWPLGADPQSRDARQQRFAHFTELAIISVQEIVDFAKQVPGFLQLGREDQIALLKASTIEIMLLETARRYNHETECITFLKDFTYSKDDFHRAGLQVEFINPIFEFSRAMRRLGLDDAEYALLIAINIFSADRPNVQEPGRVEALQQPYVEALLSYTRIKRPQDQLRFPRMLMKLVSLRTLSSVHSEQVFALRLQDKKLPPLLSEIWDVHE
Method: Recombinant GST-LXRβ ligand-binding domain (LBD; amino acids 156-461; NP009052; SEQ ID NO:4) was expressed in E. coli and purified via gluthatione-sepharose affinity chromatography. N-terminally biotinylated NCoA3 coactivator peptide (SEQ ID NO:7) was chemically synthesized (Eurogentec). Assays were done in 384 well format (final assay volume of 25 μL/well) in a Tris/HCl buffer (pH 6.8) containing KCl, bovine serum albumin, Triton-X-100 and 1 μM 24(S)-25-epoxycholesterol as LXR-prestimulating agonist. Assay buffer was provided and test articles (potential LXR inverse agonists) were titrated to yield final assay concentrations of 50 μM, 16.7 μM, 5.6 μM, 1.9 μM, 0.6 μM, 0.2 μM, 0.07 μM, 0.02 μM, 0.007 μM, 0.002 μM with one vehicle control. Finally, a detection mix was added containing anti GST-Tb cryptate (CisBio; 610SAXLB) and Streptavidin-XL665 (CisBio; 610SAXLB) as fluorescent donor and acceptor, respectively, as well as the coactivator peptide and LXRβ-LBD protein (SEQ ID NO:4). The reaction was mixed thoroughly, equilibrated for 1 h at 4° C. and vicinity of LXRβ and coactivator peptide was detected by measurement of fluorescence in a VictorX4 multiplate reader (PerkinElmer Life Science) using 340 nm as excitation and 615 and 665 nm as emission wavelengths. Assays were performed in triplicates.
240 mM KCl, 1 μg/μL BSA, 0.002% Triton-X-100, […] anti GST-Tb cryptate, 2.5 ng/μL Streptavidin-XL665, coactivator peptide (400 nM), LXRβ protein (530 μg/mL, i.e. 76 nM).

[2] = target: T2, LXRβ (Homo sapiens, UniProt P55055); experiment: LXR Gal4 reporter transient transfection assay (mammalian two-hybrid, HEK293), LXRβ; format: cell-based; set-up: LXRβ (amino acids 156-461); expressed in transfected cells; host or cells: HEK293; conditions: full length (FL) LXRβ, HEK293; read-out: FL-M2H Gal4β
T2 sequence (P55055 1-460): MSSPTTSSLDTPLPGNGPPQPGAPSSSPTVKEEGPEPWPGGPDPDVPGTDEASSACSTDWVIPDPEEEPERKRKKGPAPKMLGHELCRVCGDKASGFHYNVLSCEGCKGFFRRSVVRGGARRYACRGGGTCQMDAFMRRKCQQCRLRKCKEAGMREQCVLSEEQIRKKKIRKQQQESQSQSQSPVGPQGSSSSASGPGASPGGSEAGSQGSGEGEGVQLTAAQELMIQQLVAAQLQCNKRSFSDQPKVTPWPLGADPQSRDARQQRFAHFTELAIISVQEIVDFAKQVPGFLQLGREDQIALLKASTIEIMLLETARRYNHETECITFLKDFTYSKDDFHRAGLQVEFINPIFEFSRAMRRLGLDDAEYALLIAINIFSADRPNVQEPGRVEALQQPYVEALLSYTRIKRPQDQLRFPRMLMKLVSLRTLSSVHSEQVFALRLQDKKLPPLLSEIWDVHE
Method: LXRα and LXRβ activity status was determined via detection of interaction with coactivator and corepressor proteins in mammalian two-hybrid experiments (M2H). For this, via transient transfection the full length (FL) proteins of LXRα (amino acids 1-447; NP005684; SEQ ID NO:1) or LXRβ-(amino acids 1-461; NP009052; SEQ ID NO:2) or the ligand-binding domains (LBD) of LXRα (amino acids 155-447 SEQ ID NO:3) or LXRβ (amino acids 156-461; SEQ ID NO:4) were expressed from pCMV-AD (Stratagene) as fusions to the transcriptional activation domain of NFkB. As cofactors, domains of either the steroid receptor coactivator 1 (SRC1; amino acids 552-887; SEQ ID NO:5) or of the corepressor NCoR (amino acids 1906-2312; NP006302; SEQ ID NO:6) were expressed as fusions to the DNA binding domain of the yeast transcription factor GAL4 (from pCMV-BD; Stratagene). Interaction was monitored via activation of a coexpressed Firefly Luciferase Reporter gene under control of a promoter containing repetitive GAL4 response elements (vector pFRLuc; Stratagene). Transfection efficiency was controlled via cotransfection of constitutively active pRL-CMV Renilla reniformis luciferase reporter (Promega). HEK293 cells were grown in minimum essential medium (MEM) with 2 mM L-glutamine and Earle's balanced salt solution supplemented with 8.3% fetal bovine serum, 0.1 mM non-essential amino acids, 1 mM sodium pyruvate, at 37° C. in 5% CO2. 3.5×10^4 cells/well were plated in 96-well cell culture plates in growth medium supplemented with 8.3% fetal bovine serum for 16-20 h to ˜90% confluency. For transfection, medium was taken off and LXR and cofactor expressing plasmids as well as the reporter plasmids are added in 30 μL OPTIMEM/well including polyethylene-imine (PEI) as vehicle. Typical amounts of plasmids transfected/well: pCMV-AD-LXR (5 ng), pCMV-BD-cofactor (5 ng), pFR-Luc (100 ng), pRL-CMV (0.5 ng). Compound stocks were prepared in DMSO, prediluted in MEM to a total volume of 120 μL, and added 4 h after addition of the transfection mixture (final vehicle concentration not exceeding 0.2%). Cells were incubated for additional 16 h, lysed for 10 min in 1×Passive Lysis Buffer (Promega) and Firefly and Renilla luciferase activities were measured sequentially in the same cell extract using buffers containing D-luciferine and coelenterazine, respectively. Measurements of luminescence were done in a BMG-luminometer.
The potencies of Compound 21/3 and its analog, Compound pre-6/3, against LXRα and LXRβ were evaluated in biochemical binding assays, cellular mammalian two-hybrid (M2H) interaction assays evaluating nuclear receptor co-repressor (NCOR) recruitment, and cellular reporter assays evaluating transcriptional activity (Table 5).

SMILES	EC50 [1] [nM]	EC50 [2] [nM]
Cc1ccc(S(=O)(=O)n2c(-c3cccc(N4CC(C(=O)O)C4)c3)c(-c3ccoc3C#N)c3cc(F)ccc32)cc1 [3/26]	1000 to 10000	< 100
Cc1ccc(S(=O)(=O)n2c(-c3cccc(N4CC(C(=O)O)C4)c3)c(-c3ccsc3CCO)c3cc(F)ccc32)cc1 [3/27]	1000 to 10000	100 to 1000
Cc1ccc(S(=O)(=O)n2c(-c3cccc(N4CC(C(=O)O)C4)c3)c(-c3ccsc3C(=O)N(C)C)c3cc(F)ccc32)cc1 [3/28]	> 10000	1000 to 10000
Cc1ccc(S(=O)(=O)n2c(-c3cccc(N4CC(C(=O)O)C4)c3)c(-c3ccsc3C(F)(F)F)c3cc(F)ccc32)cc1 [3/30]	100 to 1000	< 100
Cc1ccc(S(=O)(=O)n2c(-c3cccc(N4CC(C(=O)O)C4)c3)c(-c3ccccc3C3COC3)c3cc(F)ccc32)cc1 [3/31]	100 to 1000	100 to 1000
Cc1ccc(S(=O)(=O)n2c(-c3cccc(N4CC(C(=O)O)C4)c3)c(-c3ccsc3C#N)c3cc(F)ccc32)cc1 [3/32]	100 to 1000	< 100
N#Cc1sccc1-c1c(-c2cccc(N3CC(C(=O)O)C3)c2)n(S(=O)(=O)c2ccc(C(F)(F)F)cc2)c2ccc(F)cc12 [3/34]	100 to 1000	< 100
N#Cc1sccc1-c1c(-c2cccc(N3CC(C(=O)O)C3)c2)n(S(=O)(=O)c2ccc(C(F)F)cc2)c2ccc(F)cc12 [3/35]	100 to 1000	< 100
CC1CCN(S(=O)(=O)n2c(-c3cccc(N4CC(C(=O)O)C4)c3)c(-c3ccsc3C#N)c3cc(F)ccc32)CC1 [3/36]	1000 to 10000	100 to 1000
Cc1ccc(S(=O)(=O)n2c(-c3cccc(N4CC(C)(C(=O)O)C4)c3)c(-c3ccsc3C#N)c3cc(F)ccc32)cc1 [3/37]	100 to 1000	< 100
Cc1ccc(S(=O)(=O)n2c(-c3cccc(N4CCC(C(=O)O)CC4)c3)c(-c3ccsc3C#N)c3cc(F)ccc32)cc1 [3/38]	100 to 1000	< 100
Cc1ccc(S(=O)(=O)n2c(-c3cccc(C4CC(C(=O)O)C4)c3)c(-c3ccsc3C#N)c3cc(F)ccc32)cc1 (centres unmarked) [3/39]	100 to 1000	< 100
Cc1ccc(S(=O)(=O)n2c(-c3cc(N4CC(C(=O)O)C4)ccc3Cl)c(-c3ccsc3C#N)c3cc(F)ccc32)cc1 [3/40]	1000 to 10000	< 100
Cc1ccc(S(=O)(=O)n2c(-c3cc(N4CC(C(=O)O)C4)ccc3F)c(-c3ccsc3C#N)c3cc(F)ccc32)cc1 [3/41]	1000 to 10000	< 100
Cc1ccc(S(=O)(=O)n2c(-c3cccc(N4CC(C(=O)O)C4)c3)c(-c3ccsc3C#N)c3cc(C#N)ccc32)cc1 [3/45]	1000 to 10000	100 to 1000
Cc1ccc(S(=O)(=O)n2c(-c3cccc(-c4ccc(C(=O)O)nc4)c3)c(-c3ccsc3C#N)c3cc(F)ccc32)cc1 [3/47]	100 to 1000	< 100

SMILES	EC50 [1] [nM]	EC50 [2] [nM]
Cc1ccc(S(=O)(=O)n2c(-c3cccc(-c4ccc(C(=O)O)c(Cl)c4)c3)c(-c3ccsc3C#N)c3cc(F)ccc32)cc1 [3/49]	100 to 1000	< 100
Cc1ccc(S(=O)(=O)n2c(-c3cccc(N4CCC(C)(C(=O)O)CC4)c3)c(-c3ccsc3C#N)c3cc(F)ccc32)cc1 [3/50]	100 to 1000	< 100
Cc1ccc(S(=O)(=O)n2c(-c3cccc(N4CC(C(=O)NC(C)(C)C(=O)O)C4)c3)c(-c3ccsc3C#N)c3cc(F)ccc32)cc1 [3/52]	100 to 1000	100 to 1000
COc1cc(F)cc2c(-c3ccsc3C#N)c(-c3cccc(-c4ccc(C(=O)O)cc4)c3)n(S(=O)(=O)c3ccc(C)cc3)c12 [3/53]	< 100	< 100
Cc1ccc(S(=O)(=O)n2c(-c3cccc(-c4ccc(C(=O)O)cc4)c3)c(-c3ccsc3C#N)c3cc(F)cc(O)c32)cc1 [3/54]	100 to 1000	< 100
Cc1ccc(S(=O)(=O)n2c(-c3cccc(-c4ccc(C(C)(O)C(=O)O)cc4)c3)c(-c3ccsc3C#N)c3cc(F)ccc32)cc1 (centres unmarked) [3/55]	100 to 1000	< 100
O=C(O)c1ccc(-c2cccc(-c3c(-c4ccccc4C4COC4)c4cc(F)ccc4n3S(=O)(=O)c3ccc(Cl)cc3)c2)c(Cl)c1 [3/56]	< 100	< 100
N#Cc1sccc1-c1c(-c2cccc(-c3ccc(C(=O)O)cc3Cl)c2)n(S(=O)(=O)c2ccc(Cl)cc2)c2ccc(F)cc12 [3/57]	100 to 1000	< 100
Cc1ccc(S(=O)(=O)n2c(-c3cccc(N4[C@@H]5CC[C@H]4C[C@@H](C(=O)O)C5)c3)c(-c3ccsc3C#N)c3cc(F)ccc32)cc1 [3/58]	1000 to 10000	< 100
N#Cc1sccc1-c1c(-c2cccc(N3CCC(C(=O)O)CC3)c2)n(S(=O)(=O)c2ccc(C(F)F)cc2)c2ccc(F)cc12 [3/60]	100 to 1000	< 100
O=C(O)c1ccc(-c2cccc(-c3c(-c4ccccc4C4(F)CNC4)c4cc(F)ccc4n3S(=O)(=O)c3ccc(C(F)F)cc3)c2)c(Cl)c1 [3/61]	100 to 1000	100 to 1000
CN1CC(F)(c2ccccc2-c2c(-c3cccc(-c4ccc(C(=O)O)cc4Cl)c3)n(S(=O)(=O)c3ccc(C(F)F)cc3)c3ccc(F)cc23)C1 [3/62]	100 to 1000	< 100
O=C(O)c1ccc(-c2cccc(-c3c(-c4ccsc4C4COC4)c4cc(F)ccc4n3S(=O)(=O)c3ccc(C(F)F)cc3)c2)c(Cl)c1 [3/63]	< 100	< 100
Cc1ccc(S(=O)(=O)n2c(-c3cccc(C4CC5(CC(C(=O)O)C5)C4)c3)c(-c3ccsc3C#N)c3cc(F)ccc32)cc1 (centres unmarked) [3/65]	100 to 1000	< 100
CC1(C)CCN(S(=O)(=O)n2c(-c3cccc(-c4ccc(C(=O)O)cc4)c3)c(-c3ccsc3C#N)c3ccccc32)CC1 [3/66]	1000 to 10000	100 to 1000
